Our source for the IC50 values is patent US8809341B2, “2,4-pyrimidinediamine compounds and uses as anti-proliferative agents” (Rigel Pharmaceuticals, Inc., priority 2003, dated 2014).

One assay has as its system H1299 cells. Kind of assay: in vitro antiproliferation assay, H1299 (lung). It counts as cell-based. The conditions noted are these: IC50 class against H1299 (lung) tumor cells. The procedure: (§1) The IC50 values of various compounds against a various different tumor cell lines were determined using standard in vitro antiproliferation assays. The tumor cell lines tested were as follows: A549 (lung); H1299 (lung), ACHN (kidney/p53 wt), CAKI (renal cell carcinoma), NCI-H460 (lung); HCT116 (colon/p53w0; HELA (cervix/p53 wt), HUH7 (liver/p53 wt), HUVEC (primary endothelial), LNCAP (prostate), HT-29 (colon); MCF-7 (breast); MCF-7 (breast/ER positive), MDA MB435S (breast); MDA MB231 (breast/ER negative), DU145 (prostate); BxPC-3 (pancreatic); SKOV-3 (ovarian); HepG2 (hepatic), NDHF primary normal human dermal fibroblast), SKMEL28 (breast/p53mut), SKMEL5 (breast/p53 wt), U20S (bone) and PC3 (prostate). […] A blank indicates the specified compound was not tested against the specified cell line.

In another assay the test system is A549 cells. Kind of assay: in vitro antiproliferation assay, A549 (lung). In kind it is cell-based. Conditions: IC50 class against A549 (lung) tumor cells. The procedure:
as §1

Usually IC50 stands for the concentration needed to halve the response being measured. Lower therefore signals inhibition by little substance. For `CCN1CCN(c2ccc(Nc3ncc(F)c(NC4CCCC4)n3)cn2)CC1` [compound 168], the concentration for half-maximal inhibition (IC50) in the assay on H1299 cells and in the assay with A549 cells was not above 20 µM in each case.
Turning to `CCN1CCN(c2ccc(Nc3ncc(F)c(NC4CCCCC4)n3)cn2)CC1` [compound 169], the IC50 with H1299 cells and with A549 cells was not above 20 µM in each case.
For the compound `Cc1cc(Nc2ncc(F)c(NC3CCC3)n2)cnc1N1CCN(C)CC1` [compound 171], the IC50 with H1299 cells and in the assay with A549 cells was not above 20 µM in each case.
For the compound `Cc1cc(Nc2ncc(F)c(NC3CCCC3)n2)cnc1N1CCN(C)CC1` [compound 172], the IC50 in the assay with H1299 cells and in the assay on A549 cells was not above 20 µM each time.
In the case of `Cc1cc(Nc2ncc(F)c(NC3CCCCC3)n2)cnc1N1CCN(C)CC1` [compound 173], the IC50 with H1299 cells and in the assay on A549 cells was not above 20 µM in each case.
In the case of `CN1CCN(c2ccc(Nc3ncc(F)c(NC4CCC4)n3)cc2CO)CC1` [compound 174], the IC50 in the assay with H1299 cells and in the assay with A549 cells was not above 20 µM in each case.
Turning to `NC(=O)c1ccc(Nc2ncc(F)c(NC3CCCC3)n2)cc1` [compound 175], the IC50 with H1299 cells was more than 20 µM; with A549 cells, not above 20 µM.
On to `CCN(CC)CCNC(=O)c1ccc(Nc2ncc(F)c(NC3CCCC3)n2)cc1` [compound 176], for which the IC50 with H1299 cells and with A549 cells was not above 20 µM each time.
Regarding `COC(=O)CNC(=O)c1ccc(Nc2ncc(F)c(NC3CCCC3)n2)cc1` [compound 177], the IC50 in the assay on H1299 cells and in the assay with A549 cells was not above 20 µM in each case.
For `CN1CCN(c2ccc(Nc3ncc(F)c(NC4CC(C)(C)N(C)C(C)(C)C4)n3)cc2)CC1` [compound 178], the IC50 in the assay with H1299 cells and in the assay on A549 cells was not above 20 µM each time.
As for `CN1CCN(c2cccc(Nc3ncc(F)c(NC4CC(C)(C)N(C)C(C)(C)C4)n3)c2)CC1` [compound 179], the IC50 in the assay on H1299 cells and in the assay with A549 cells was not above 20 µM in each case.
On to `CN1CCN(c2ccc(Nc3ncc(F)c(NC4CC(C)(C)N(C)C(C)(C)C4)n3)cc2Cl)CC1` [compound 180], for which the IC50 in the assay on H1299 cells and in the assay on A549 cells was not above 20 µM each time.
As for `Cc1cc(Nc2ncc(F)c(NC3CC(C)(C)N(C)C(C)(C)C3)n2)ccc1N1CCN(C)CC1` [compound 181], the IC50 with H1299 cells and in the assay on A549 cells was not above 20 µM each time.
Consider `CN1CCN(c2ccc(Nc3ncc(F)c(NC4CC(C)(C)N(C)C(C)(C)C4)n3)cc2C(F)(F)F)CC1` [compound 182], for which the IC50 in the assay with H1299 cells and in the assay on A549 cells was not above 20 µM in each case.
For the compound `CCN1CCN(c2ccc(Nc3ncc(F)c(NC4CC(C)(C)N(C)C(C)(C)C4)n3)cn2)CC1` [compound 183], the IC50 with H1299 cells and in the assay on A549 cells was not above 20 µM in each case.
With `Cc1cc(Nc2ncc(F)c(NC3CC(C)(C)N(C)C(C)(C)C3)n2)cnc1N1CCN(C)CC1` [compound 184], the IC50 in the assay on H1299 cells and in the assay with A549 cells was not above 20 µM in each case.
In the case of `CCOC(=O)N1CCC(Nc2nc(Nc3ccc(N4CCN(C)CC4)cc3)ncc2F)CC1` [compound 185], the IC50 in the assay with H1299 cells and in the assay on A549 cells was not above 20 µM in each case.
As to `CCOC(=O)N1CCC(Nc2nc(Nc3cccc(N4CCN(C)CC4)c3)ncc2F)CC1` [compound 186], the IC50 in the assay with H1299 cells and in the assay with A549 cells was not above 20 µM throughout.
Regarding `CCOC(=O)N1CCC(Nc2nc(Nc3ccc(N4CCN(C)CC4)c(Cl)c3)ncc2F)CC1` [compound 187], the half-inhibitory concentration (IC50) in the assay with H1299 cells and in the assay on A549 cells was not above 20 µM in each case.
On to `CCOC(=O)N1CCC(Nc2nc(Nc3ccc(N4CCN(C)CC4)c(C)c3)ncc2F)CC1` [compound 188], for which the IC50 in the assay with H1299 cells and in the assay with A549 cells was not above 20 µM throughout.
`CCOC(=O)N1CCC(Nc2nc(Nc3ccc(N4CCN(C)CC4)c(C(F)(F)F)c3)ncc2F)CC1` [compound 189]: the half-maximal inhibitory concentration (IC50) in the assay with H1299 cells and in the assay with A549 cells was not above 20 µM throughout.
For the compound `CCOC(=O)N1CCC(Nc2nc(Nc3ccc(N4CCN(C)CC4)nc3)ncc2F)CC1` [compound 190], the IC50 in the assay with H1299 cells and in the assay with A549 cells was not above 20 µM each time.
